Assays:
[1] = Toxicity on the same plates (ATPlite cell viability); conditions: African green monkey, CC50, Vero cells, same plates as DENV-2 antiviral assay
[2] = tested on: DENV-2 16681 strain; test: DENV-2 antiviral assay (eGFP-labeled virus in Vero cells); format: cell-based, Dengue virus; conditions: DENV-2 16681 eGFP, MOI 0.5, 3 days
Protocol: The antiviral activity of all the compounds of the invention was tested against the DENV-2 16681 strain which was labeled with enhanced green fluorescent protein (eGPF). The culture medium consists of minimal essential medium supplemented with 2% of heat-inactivated fetal calf serum, 0.04% gentamycin (50 mg/mL) and 2 mM of L-glutamine. Vero cells, obtained from ECACC, were suspended in culture medium and 25 μL was added to 384-well plates (2500 cells/well), which already contain the antiviral compounds. Typically, these plates contain a 5-fold serial dilution of 9 dilution steps of the test compound at 200 times the final concentration in 100% DMSO (200 nL). […] Finally, each plate contains wells which are assigned as virus controls (containing cells and virus in the absence of compound), cell controls (containing cells in the absence of virus and compound) and medium controls (containing medium in the absence of cells, virus and compounds). To the wells assigned as medium control, 25 μL of culture medium was added instead of Vero cells. Once the cells were added to the plates, the plates were incubated for 30 minutes at room temperature to allow the cells to distribute evenly within the wells. Next, the plates were incubated in a fully humidified incubator (37° C., 5% CO2) until the next day. Then, DENV-2 strain 16681, labeled with eGFP, was added at a multiplicity of infection (MOI) of 0.5. Therefore, 15 μL of virus suspension was added to all the wells containing test compound and to the wells assigned as virus control. In parallel, 15 μL of culture medium was added to the medium and cell controls. Next, the plates were incubated for 3 days in a fully humidified incubator (37° C., 5% CO2). At the day of the read out, the eGFP fluorescence was measured using an automated fluorescence microscope at 488 nm (blue laser). Using an in-house LIMS system, inhibition dose response curves for each compound were calculated and the half maximal effective concentration (EC50) was determined. Therefore, the percent inhibition (I) for every test concentration is calculated using the following formula: I=100*([…])/(SVC−SCC); ST, SCC and SVC are the amount of eGFP signal in the test compound, cell control and virus control wells, respectively. The EC50 represents the concentration of a compound at which the virus replication is inhibited with 50%, as measured by a 50% reduction of the eGFP fluorescent intensity compared to the virus control. The EC50 is calculated using linear interpolation (Table 1).

[3] = tested on: Vero cells; test: Toxicity on the same plates (ATPlite cell viability); conditions: Vero cells, same plates as DENV-2 antiviral assay
[4] = Dengue virus, DENV2, Vero, 72 h

Row | SMILES | CC50 [1] [µM] | EC50 [2, 4] [µM] | EC50 [2] [µM] | CC50 [3] [µM]
1 | COc1cc(NC(C(=O)c2c[nH]c3ccc(OC(F)(F)F)cc23)c2ccc(F)cc2OC)cc(OCCO)c1 (racemic) [Compound 5, 2-(4-fluoro-2-methoxyphenyl)-2-((3-(2-hydroxyethoxy)-5-methoxyphenyl)amino)-1-(5-(trifluoromethoxy)-1H-indol-3-yl)ethanone] | 4.5 | 0.0005 | – | –
2 | COc1cc(NC(C(=O)c2c[nH]c3ccc(C(F)(F)F)cc23)c2ccc(Cl)cc2OC)cc(OCCO)c1 (single isomer, unassigned) [Compound 9A, 2-(4-chloro-2-methoxyphenyl)-2-((3-(2-hydroxyethoxy)-5-methoxyphenyl)amino)-1-(5-(trifluoromethyl)-1H-indol-3-yl)ethanone] | 3.5 | – | 0.012 | –
3 | COc1cc(NC(C(=O)c2c[nH]c3ccc(OC(F)(F)F)cc23)c2ccc(Cl)cc2OC)cc(OCCO)c1 (single isomer, unassigned) [Compound 13B, 2-(4-chloro-2-methoxyphenyl)-2-((3-(2-hydroxyethoxy)-5-methoxyphenyl)amino)-1-(5-(trifluoromethoxy)-1H-indol-3-yl)ethanone] | – | – | 0.0072 | 5.8
4 | COc1cc(NC(C(=O)c2c[nH]c3cc(OC)c(C(F)(F)F)cc23)c2ccc(Cl)cc2OC)cc(OCCO)c1 (racemic) [Compound 10, 2-(4-chloro-2-methoxyphenyl)-2-((3-(2-hydroxyethoxy)-5-methoxyphenyl)amino)-1-(6-methoxy-5-(trifluoromethyl)-1H-indol-3-yl)ethanone] | 3.2 | 0.00027 | – | –
5 | COc1cc(NC(C(=O)c2c[nH]c3cc(OC)c(OC(F)(F)F)cc23)c2ccc(F)cc2OC)cc(OCCO)c1 (single isomer, unassigned) [Compound 6B, 2-(4-fluoro-2-methoxyphenyl)-2-((3-(2-hydroxyethoxy)-5-methoxyphenyl)amino)-1-(6-methoxy-5-(trifluoromethoxy)-1H-indol-3-yl)ethanone] | – | – | 0.098 | 10
6 | COc1cc(NC(C(=O)c2c[nH]c3cc(OC)c(OC(F)(F)F)cc23)c2ccc(Cl)cc2OC)cc(OCCO)c1 (racemic) [Compound 14, 2-(4-chloro-2-methoxyphenyl)-2-((3-(2-hydroxyethoxy)-5-methoxyphenyl)amino)-1-(6-methoxy-5-(trifluoromethoxy)-1H-indol-3-yl)ethanone] | 3.5 | 0.00034 | – | –
7 | COc1cc(NC(C(=O)c2c[nH]c3cc(F)c(C(F)(F)F)cc23)c2ccc(F)cc2OC)cc(OCCO)c1 (single isomer, unassigned) [Compound 3B, 2-(4-fluoro-2-methoxyphenyl)-1-(6-fluoro-5-(trifluoromethyl)-1H-indol-3-yl)-2-((3-(2-hydroxyethoxy)-5-methoxyphenyl)amino)ethanone] | – | – | 0.015 | 7.8
8 | COc1cc(NC(C(=O)c2c[nH]c3c(C)cc(C(F)(F)F)cc23)c2ccc(F)cc2OC)cc(OCCO)c1 (racemic) [Compound 4, 2-(4-fluoro-2-methoxyphenyl)-2-((3-(2-hydroxyethoxy)-5-methoxyphenyl)amino)-1-(7-methyl-5-(trifluoromethyl)-1H-indol-3-yl)ethanone] | 6.1 | 0.00062 | – | –
9 | COc1cc(NC(C(=O)c2c[nH]c3ccc(C(F)(F)F)cc23)c2ccc(F)cc2OC)cc(OCCO)c1 (single isomer, unassigned) [Compound 1A, 2-(4-fluoro-2-methoxyphenyl)-2-((3-(2-hydroxyethoxy)-5-methoxyphenyl)amino)-1-(5-(trifluoromethyl)-1H-indol-3-yl)ethanone] | – | – | 0.064 | 6.8
10 | COc1cc(NC(C(=O)c2c[nH]c3cc(F)c(OC(F)(F)F)cc23)c2ccc(F)cc2OC)cc(OCCO)c1 (single isomer, unassigned) [Compound 7A, 2-(4-fluoro-2-methoxyphenyl)-1-(6-fluoro-5-(trifluoromethoxy)-1H-indol-3-yl)-2-((3-(2-hydroxyethoxy)-5-methoxyphenyl)amino)ethanone] | – | – | 0.025 | 6.7
11 | COc1cc(NC(C(=O)c2c[nH]c3cc(F)c(C(F)(F)F)cc23)c2ccc(Cl)cc2OC)cc(OCCO)c1 (single isomer, unassigned) [Compound 11B, 2-(4-chloro-2-methoxyphenyl)-1-(6-fluoro-5-(trifluoromethyl)-1H-indol-3-yl)-2-((3-(2-hydroxyethoxy)-5-methoxyphenyl)amino)ethanone] | – | – | 0.015 | 2.7
12 | COc1cc(NC(C(=O)c2c[nH]c3c(C)cc(C(F)(F)F)cc23)c2ccc(F)cc2OC)cc(OCCO)c1 (single isomer, unassigned) [Compound 4A, 2-(4-fluoro-2-methoxyphenyl)-2-((3-(2-hydroxyethoxy)-5-methoxyphenyl)amino)-1-(7-methyl-5-(trifluoromethyl)-1H-indol-3-yl)ethanone] | – | – | 0.063 | 11
13 | COc1cc(NC(C(=O)c2c[nH]c3cc(F)c(OC(F)(F)F)cc23)c2ccc(Cl)cc2OC)cc(OCCO)c1 (single isomer, unassigned) [Compound 15A, 2-(4-chloro-2-methoxyphenyl)-1-(6-fluoro-5-(trifluoromethoxy)-1H-indol-3-yl)-2-((3-(2-hydroxyethoxy)-5-methoxyphenyl)amino)ethanone] | 3.8 | – | 0.0099 | –
14 | COc1cc(NC(C(=O)c2c[nH]c3cc(OC)c(OC(F)(F)F)cc23)c2ccc(Cl)cc2OC)cc(OCCO)c1 (single isomer, unassigned) [Compound 14B, 2-(4-chloro-2-methoxyphenyl)-2-((3-(2-hydroxyethoxy)-5-methoxyphenyl)amino)-1-(6-methoxy-5-(trifluoromethoxy)-1H-indol-3-yl)ethanone] | – | – | 0.0072 | 5.4
15 | COc1cc(NC(C(=O)c2c[nH]c3ccc(C(F)(F)F)cc23)c2ccc(Cl)cc2OC)cc(OCCO)c1 (racemic) [Compound 9, 2-(4-chloro-2-methoxyphenyl)-2-((3-(2-hydroxyethoxy)-5-methoxyphenyl)amino)-1-(5-(trifluoromethyl)-1H-indol-3-yl)ethanone] | 2.5 | 0.00029 | – | –
16 | COc1cc(NC(C(=O)c2c[nH]c3ccc(OC(F)(F)F)cc23)c2ccc(F)cc2OC)cc(OCCO)c1 (single isomer, unassigned) [Compound 5A, 2-(4-fluoro-2-methoxyphenyl)-2-((3-(2-hydroxyethoxy)-5-methoxyphenyl)amino)-1-(5-(trifluoromethoxy)-1H-indol-3-yl)ethanone] | 5.4 | – | 0.03 | –
17 | COc1cc(NC(C(=O)c2c[nH]c3c(C)cc(OC(F)(F)F)cc23)c2ccc(F)cc2OC)cc(OCCO)c1 (single isomer, unassigned) [Compound 8B, 2-(4-fluoro-2-methoxyphenyl)-2-((3-(2-hydroxyethoxy)-5-methoxyphenyl)amino)-1-(7-methyl-5-(trifluoromethoxy)-1H-indol-3-yl)ethanone] | – | – | 0.031 | 6
18 | COc1cc(NC(C(=O)c2c[nH]c3c(C)cc(OC(F)(F)F)cc23)c2ccc(Cl)cc2OC)cc(OCCO)c1 (single isomer, unassigned) [Compound 16B, 2-(4-chloro-2-methoxyphenyl)-2-((3-(2-hydroxyethoxy)-5-methoxyphenyl)amino)-1-(7-methyl-5-(trifluoromethoxy)-1H-indol-3-yl)ethanone] | – | – | 0.015 | 3.6
19 | COc1cc(NC(C(=O)c2c[nH]c3cc(OC)c(C(F)(F)F)cc23)c2ccc(F)cc2OC)cc(OCCO)c1 (single isomer, unassigned) [Compound 2B, 2-(4-fluoro-2-methoxyphenyl)-2-((3-(2-hydroxyethoxy)-5-methoxyphenyl)amino)-1-(6-methoxy-5-(trifluoromethyl)-1H-indol-3-yl)ethanone] | – | – | 0.024 | 6.8
20 | COc1cc(NC(C(=O)c2c[nH]c3c(C)cc(C(F)(F)F)cc23)c2ccc(Cl)cc2OC)cc(OCCO)c1 (single isomer, unassigned) [Compound 12B, 2-(4-chloro-2-methoxyphenyl)-2-((3-(2-hydroxyethoxy)-5-methoxyphenyl)amino)-1-(7-methyl-5-(trifluoromethyl)-1H-indol-3-yl)ethanone] | – | – | 0.038 | 11
